# pEC50: −log10 of the molar value. Where two headings read alike, the source gives them in different places.
# What was measured:
# [1] = system: P. falciparum (clone 3D7); experiment: Parasite reduction ratio (PRR) assay; format: cell-based, Plasmodium falciparum; details: for Lag phase / Log PRR / PCT99.9% (hours taken to kill 99.9% of the parasites): 10× EC50, 3D7; for Slope: 10× EC50, 3D7 killing profile; for Killing profile: 10× EC50, faster than pyrimethamine, slower than chloroquine
# Protocol: The in vitro killing profile of compounds was determined by monitoring the ability of parasites to recover following treatment with a compound of interest using a previously reported approach ([50]), which allowed calculation of the PRR ([51]). […] To quantify the number of viable parasites following treatment, four independent sets of threefold serial dilutions were performed on each sample, which were assayed for the presence or absence of parasites after 28 days using the LDH assay, and the number of viable parasites was determined by the number of wells showing growth. PRR and PCT99.9% were calculated as previously reported ([50]).
# [2] = system: P. falciparum clinical isolates from Porto Velho, Brazil; experiment: Ex vivo schizont maturation assay, Brazilian clinical isolates; format: cell-based, Plasmodium falciparum; details: Plasmodium falciparum
# Protocol: Only monoinfected patients with P. falciparum with parasitemia between 2000 and 80,000 parasites/μl and with at least 70% of ring-stage parasites were recruited. Patients who had used an antimalarial in the previous month and/or presented with symptoms of severe malaria were excluded from the study. The study cohort comprised 24 patients living in this highly endemic area. A peripheral venous blood sample (5 ml) was collected from each individual by venipuncture in heparin-containing tubes and immediately used in the ex vivo drug susceptibility assay using preprepared plates containing diluted antimalarial compounds. […] Last, 20 μl of each dilution was transferred into the ex vivo assay plate and diluted 10-fold into the final assay medium containing parasites. For the infected blood preparation, 5 ml of whole blood was centrifuged at 800g for 10 min, and the plasma and buffy coat were removed. […] Control assays on a 3D7 laboratory isolate were performed with medium supplemented with human serum (20%). The iRBC (180 μl per well) were distributed in the predosed drug plate. […] Control wells containing drug-free iRBCs were cultured with complete medium. The parasite-drug incubation was terminated when 40% of the ring stages reached the schizont stage (at least three distinct nuclei per parasite) in the drug-free control wells. Thick blood films were then made from each well, dried, stained with 5% Giemsa solution for 30 min, and examined microscopically. The number of schizonts per 200 asexual-stage parasites was determined for each drug concentration and then normalized by comparing with the schizont number in the drug-free control wells [considered as 100% ([64])]. The half-maximal drug inhibitory response (EC50) was estimated by curve fitting using software from the OriginLab Corporation, Northampton, MA, USA and comparing with parasite growth in the drug-free controls.
# [3] = system: P. falciparum stage IV/V gametocytes; experiment: LDH-based gametocyte viability assay; format: cell-based, Plasmodium falciparum; details: stage IV to V gametocytes
# Protocol: The pLDH assay was performed on late (>95% stage IV/V) gametocytes. Compound dilutions were placed in triplicate in 96-well plates in a final volume of 100 μl per well. DHA and MMV048 were used as positive drug controls. The gametocyte cultures (100 μl per well) were added to the 96-well plates to achieve a final gametocytemia and hematocrit of 2 and 1%, respectively, in a total incubation volume of 200 μl. Plates were incubated at 37°C for 72 hours, followed by the replacement of spent medium with drug-free culture medium (75% medium change) ([54], [55]). Plates were then incubated for a further 72 hours before assessing viability by measuring pLDH activity. Gametocyte viability was determined spectrophotometrically by measuring the activity of pLDH, according to a modified version of a published protocol ([56]). Briefly, 100 μl of Malstat reagent [0.21% (v/v) Triton X-100, 222 mM L-(+)-lactic acid, 54.5 mM tris, 0.166 mM APAD (Sigma-Aldrich, A5251), adjusted to pH 9 with 1 M NaOH] was transferred into a clean 96-well plate. A fixed volume of 20 μl of parasite suspension per well was added to the Malstat plate, followed by the addition of 25 μl of PES/NBT (0.239 mM phenazine ethosulfate and 1.96 mM nitro blue tetrazolium chloride). Absorbance was measured with a Multiskan Ascent 354 multiplate scanner (Thermo LabSystems, Finland) at 620 nm.
# [4] = system: P. falciparum stage V gametocytes (female gamete formation); experiment: Female gamete formation inhibition assay; format: cell-based, Plasmodium falciparum; details: 2 μM, 48 hours
# Protocol: Mature gametocytes (>95% stage V) were treated with compounds (2 μM) for 48 hours before stimulating female gamete formation. To evaluate compound dose response, gametocytes were treated similarly at set concentrations representing a fourfold serial dilution. Female gamete activation was induced by both a temperature drop and the addition of 100 μM XA. Monoclonal anti-Pfs25 antibody (BEI Resources, catalog number MRA-28; 1:1000 dilution) conjugated to fluorescein isothiocyanate was used to detect female gametes. Image acquisition was performed using a Zeiss Axio Lab.A1 epifluorescence microscope with a 100/1.4 numerical aperture oil immersion objective and a Zeiss Axiocam 202 mono digital camera. Using a 100× objective, 30 images were taken per sample and analyzed manually. The number, size, roundness, and intensity of fluorescence of activated female gametocytes were evaluated. Compound IC50 values were determined with nonlinear curve fitting (GraphPad Prism 6), normalized to maximum and minimum inhibition.
# [5] = system: P. falciparum stage V gametocytes (male gamete formation); experiment: Exflagellation (male gamete formation) inhibition assay; format: cell-based, Plasmodium falciparum; details: 2 μM, 48 hours
# Protocol: The exflagellation inhibition assay was performed by capturing movement of exflagellation centers over time by video microscopy [adapted from a reported protocol ([52])]. For this carry-over format, mature stage V gametocytes were treated with 2 μM of each compound for 48 hours before induction of exflagellation in the presence of compound. To evaluate compound dose response, gametocytes were treated similarly at a set of concentrations representing a fourfold serial dilution. Mature gametocyte cultures (>95% stage V; 500 μl) were centrifuged at 3500 rpm for 30 s, and the pellet was resuspended in 30 μl of ookinete medium [RPMI 1640 medium containing L-glutamine (Sigma-Aldrich, R6504), gentamycin (0.024 mg/ml; HyClone, SV30080.01), 202 μM hypoxanthine (Sigma-Aldrich, H9636), 25 mM Hepes (Sigma-Aldrich, H4034), 0.2% glucose (Sigma-Aldrich, G6152), and 0.5% (w/v) AlbuMAX II (Invitrogen, Paisley, UK), supplemented with 100 μM XA and 20% human serum]. The activated culture (10 μl) was introduced into a Neubauer chamber and placed on the microscope platform to settle homogenously. Time was noted as time zero (T0), and the chamber was incubated at room temperature. Movement was recorded by video microscopy using a Carl Zeiss NT 6V/10W Stab microscope, fitted with a MicroCapture camera at 10× magnification, and then quantified by a semiautomated method, a modification of the method described previously ([53]). A series of 15 videos of 8 to 10 s each were captured at random locations between 15 and 22.5 min after incubation. Each video was analyzed using Icy bioimage analysis software to quantify the number of exflagellating centers. Compound IC50 values were determined with nonlinear curve fitting (GraphPad Prism 6), normalized to maximum and minimum inhibition.
# HepG2 cells = experiment: HepG2 cytotoxicity; format: cell-based
# From the text: Table 1. Key activity data for the three main chemical subseries against ABS parasites, parasite fractions, and HepG2 cells. ND, not determined; ×/÷ is the geometric mean with geometric SD. | column: HepG2 EC50 (nM) (selectivity index)
Structure (SMILES),Lag phase [1] [h],Log PRR [1],PCT99.9% (hours taken to kill 99.9% of the parasites) [1] [h],"pEC50 ([2]; read-out: EC50 range, clinical isolates)","pEC50 ([2]; read-out: Median EC50, clinical isolates)",Slope [1],% inhibition gametocyte viability at 15 μM [3] [%],% inhibition of female gamete formation at 2 μM [4] [%],% inhibition of exflagellation at 2 μM [5] [%],Killing profile [1],pEC50 (HepG2 cells)
"C[C@H]1[C@H](OC(=O)CCC(=O)O)O[C@@H]2O[C@@]3(C)CC[C@H]4[C@H](C)CC[C@@H]1[C@@]24OO3 [Artesunate, reference compound]",0,>8,<24,8.05 to 10.00,9.22,–,–,–,–,–,–
"O=C1C(O)=C([C@H]2CC[C@H](c3ccc(Cl)cc3)CC2)C(=O)c2ccccc21 [Atovaquone, reference compound]",48,2.26,73.0,–,–,−0.0470 ± 0.0042,–,–,–,–,–
CC(C)c1n[nH]c2c(=O)[nH]c(C3CCOc4ccc(F)cc43)nc12 (stereo not drawn) [SAL-0010007],–,–,–,–,–,–,100 ± 0,50.6 ± 1.9,100 ± 0,–,–
CCc1c2nc(-c3cc(C(=O)NC)cnc3OCC(C)C)[nH]c(=O)c2nn1CCOC [SAL-0010031],0,2.78,51.2,–,–,−0.0579 ± 0.0058,–,–,–,fast/moderate killing profile,< 4.60
CCCCOc1ncc(Br)cc1-c1nc2c(C(C)C)n[nH]c2c(=O)[nH]1 [SAL-0010203],–,–,–,–,–,–,0,44.8 ± 1.7,76.7 ± 13.6,–,–
CC(C)COc1ccc(S(=O)(=O)N(C)C)cc1-c1nc2c(C(C)C)n[nH]c2c(=O)[nH]1 [SAL-0010243],–,–,–,–,–,–,100 ± 0,80.5 ± 0.9,95.4 ± 12.3,–,–
CC(C)COc1ccc(S(=O)(=O)N(C)C)cc1-c1nc2c(C3CCC3)n[nH]c2c(=O)[nH]1 [SAL-0010283],–,–,–,–,–,–,100 ± 0,44.8 ± 2.5,72.1 ± 26.0,–,–
CC(C)COc1ccc(S(=O)(=O)N(C)C)cc1-c1nc2c(C(C)(C)C)n[nH]c2c(=O)[nH]1 [SAL-0010284],–,–,–,–,–,–,100 ± 0,58.6 ± 2.1,60.5 ± 18.0,–,–
CNC(=O)c1cnc(OCC(C)C)c(-c2nc3c(C(C)C)n[nH]c3c(=O)[nH]2)c1 [SAL-0010301],0,2.55,55.1,–,–,−0.0532 ± 0.0042,–,–,–,fast/moderate killing profile,< 4.60
